# Results reported in patent US20240142458A1, “FLUORESCENT PROBES FOR QUANTIFICATION OF FREE COPPER” (TECHNISCHE UNIVERSITÄT BERLIN, priority 2020, published 2024).
# Assays:
# Caco-2 cells [1] = experiment: Live-cell sensing of metal uptake into Caco-2 enterocytes; type: cell-based, human; conditions: for intracellular probe fluorescence upon extracellular FeSO4: 50 μM FeSO4, Caco-2 cells; for intracellular probe fluorescence upon Cu-exposure / intracellular probe response to incoming Cd^2+, Cu^2+, Hg^2+, Mn^2+, Pb^2+ and Zn^2+: 50 μM, Caco-2 cells
# Experimental: FIG. 11: Live-cell sensing of metal uptake into Caco-2 enterocytes with p-H8THPPA and m-H8TPPA. • Caco-2 cells were loaded with p-H8THPPA or m-H8TPPA and the fluorescence recorded in 3 min intervals (⋅⋅Exc/Em.416 nm/650 nm). Fifteen minutes after the start of the experiment (arrow), metal cation solutions (final concentration 50 μM) or buffer (control) were added and the fluorescence measurement continued. Data are means±S.E.M. of n=3 independent experiments.
# FIG. 12 Summary of cellular p-H8TPPA and m-H8TPPA metal responsiveness. • Data were taken from the last fluorescence readout shown in FIG. 11. Data are means+S.E.M. of n=3 independent experiments. Significant differences from buffer incubation ***p<0.001; **p<0.01; *p<0.05; one-way ANOVA/Dunnett's multiple comparison test.
# (§1) The human intestinal cell line Caco-2 (European Collection of Cell Cultures, Porton Down, UK) were routinely cultured at 37° C., 5% CO2 and humidified atmosphere in Dulbecco's Modified Eagles Medium (DMEM), containing 10% fetal calf serum (FCS) 100 U/mL penicillin and 100 μg/ml streptomycin. For cellular phosphonate porphyrins experiments, Caco-2 cells were transferred into 96 wells (initially seeding 5000 cells per well) and cultured for 14 days for differentiation into an enterocyte-like monolayer^53,54. For phosphonate labeling, differentiated cells were treated with either m-H8TPPA, p-H8TPPA or p-H8TPPA-iPr8 in a HEPES-based incubation buffer (10 mM HEPES, pH 7.35, 120 mM NaCl, 5.4 mM KCl, 5 mM glucose, 1.3 mM CaCl2, 1 mM MgCl2, 1 mM NaH2PO4, 0.3% bovine serum albumin) for […] Excess fluorescent dye was removed by multiple washing steps before fluorescence emission scanning using 416 nm excitation (Tecan Infinite M200 reader; Tecan, Grödig/Salzburg, […]). To analyze metal responsiveness of the intracellular phosphonate porphyrins, cells were post-treated with 50 μM of different metal solutions at 37° C. in an albumin-free incubation buffer in a time-course experiment.
# [2] = Metal-dependent changes of absorbance and fluorescence properties, cell-free; conditions: for new absorbance band peak after Cd^2+ treatment: decline of 416 nm maximum; for Soret peak of visible absorption: buffer-control treatment, pH 7.4, 10 μM probe
# [3] = Fluorescence titration with metal cations; conditions: for half maximal effective concentration for fluorescence silencing, copper versus other metal cations: 10 μM probe, Exc/Em 416 nm/650 nm; for fluorescence upon treatment with Cu^2+: 40 μM Cu^2+ (CuSO4), probe 10 μM
# Experimental: FIG. 6: Fluorescence titration of p-H8THPPA and m-H8TPPA with metal cations. • 10 μM p-H8TPPA or m-H8TPPA solutions were treated with increasing quantities of metal cations followed by detection of fluorescence emission (⋅Exc/Em.416 nm/650 nm). Data are means±S.E.M. of at least n=3 independent experiments. Sigmoidal dose—response curves were fitted by non-linear regression and the resulting EC50 values are indicated.
# FIG. 7: Fluorescence titration of p-H8THPPA and m-H8TPPA upon addition of metal cations • 10 μM p-H8TPPA or […] were treated with increasing quantities of metal cations followed by detection of fluorescence emission (⋅Exe/Em.416 nm/650 nm). Data are means+S.E.M. of at least n=3 independent experiments. Sigmoidal dose—response curves were fitted by non-linear regression and the resulting EC50 values are indicated.
# (§2) Absorption spectra were recorded with a Tecan Infinite M200 Reader (Tecan Austria GmbH, Grödig/Salzburg, Switzerland) from 350 to 500 nm. The same device was used in fluorescence mode to measure fluorescence excitation ([…]; ⋅⋅Em. 650 nm) and fluorescence emission (550-850 nm; ⋅⋅Exc. 415 nm) spectra. 3D scanning was performed on a Spark® multimode microplate reader (Tecan Austria GmbH, Grodig/Salzburg, Switzerland) from 350 to 450 nm (Exc.) and 555 to 850 nm (Em.) with a 5 nm step size, excitation and emission bandwidths of 5 nm, and a detector gain of 100. A typical reaction mix was made by combining equal volumes of 20 μM phosphonate porphyrins diluted in assay-buffer (50 mM HEPES in bidistilled water adjusted to […] with sodium hydroxide solution; depleted of multivalent cations with Chelex® 100 Resin pretreatment^51) and a double-concentrated metal cation solution. Following 30 min incubations at 37° C. absorption or fluorescence measurements were done. For redox conversion tests the CuSO4 solutions were pretreated with 500 μM of L-ascorbic acid before admixing into the phosphonate porphyrin dilutions. To evaluate the effect of metal chelators, the metal cation-treated incubation mixtures were posttreated with 50 equivalents of EDTA or EGTA for 15 min before fluorescence emission readout.
# [4] = Metal-dependent changes of absorbance and fluorescence properties, cell-free; conditions: for fluorescence change by iron treatment in vitro: cell-free, FIG. 1
# Experimental: (§3) FIG. 1: Metal-dependent changes of p-H8TPPA absorbance and fluorescence properties. • 10 μM p-H8TPPA dilutions were treated with various metal solutions (final concentration 40 μM) before recording (A) absorbance, (B) fluorescence excitation (⋅Em.650 nm) and (C) fluorescence emission (⋅⋅Exc.415 nm) spectra. Data are representative for three independent experiments.
# as §3, with “3:” for “1:”, “m-H8TPPA” for “p-H8TPPA”
# Aiming to use arylphosphonate-tethered porphyrins as real-time cellular metal fluorescence sensors, we first characterized their metal-responsiveness under cell-free conditions. p-H8TPPA (see FIG. 1) and m-H8TPPA (see FIG. 3), were pretreated with various bivalent metal ions at a pH close to the cellular milieu (pH 7.4) before recording absorption and fluorescence spectra. […] Following Co^2+ treatment absorption spectra were less intense, plateau-shaped with a bathochromic broadening up to 434 nm. Hg^2+-treatment red-shifted the Soret band by approximately 30 nm. […] Despite of their restricted fluorescence intensity, the fluorescence emission patterns of all the aforementioned metal-treated arylphosphonate-tethered porphyrins seemed to be […] almost indistinguishable from the buffer-controls (see FIG. 1C, FIGS. 2 and 4). Zn^2+ treatment led to a declined and much more broadened Soret band in the range of 380-430 nm (see FIG. 1A). […] Thus, we assume a fluorescence quenching effect of Zn^2+ that requires further investigation.
# as §2
# [5] = Effect of Cu-redox conversion on fluorescence; conditions: 10 μM CuSO4 +/- 500 μM L-ascorbic acid
# Experimental: FIG. 10: Effect of Cu-redox conversion on p-H8THPPA and m-H8TPPA fluorescence properties • 10 μM CuSO4 solutions pretreated +/−500 μM of l-ascorbic acid (15 min) were mixed with p-H8-TPPA or m-H8TPPA followed by detection of fluorescence emission (⋅⋅Exc/Em.416 nm/650 nm). Data are means+S.E.M. of n=3 independent experiments. Statistically significant differences from control ***p<0.001; two-way ANOVA/Tukey post hoc test) or from Cu^2+ alone (#p<0.05; two-way ANOVA/Tukey post hoc test) are indicated.
# Absorption spectra were recorded with a Tecan Infinite M200 Reader (Tecan Austria GmbH, Grödig/Salzburg, Switzerland) from 350 to 500 nm. The same device was used in fluorescence mode to measure fluorescence excitation ([…]; ⋅⋅Em. 650 nm) and fluorescence emission (550-850 nm; ⋅⋅Exc. 415 nm) spectra. 3D scanning was performed on a Spark® multimode microplate reader (Tecan Austria GmbH, Grodig/Salzburg, Switzerland) from 350 to 450 nm (Exc.) and 555 to 850 nm (Em.) with a 5 nm step size, excitation and emission bandwidths of 5 nm, and a detector gain of 100. […] Following 30 min incubations at 37° C. absorption or fluorescence measurements were done. […] To evaluate the effect of metal chelators, the metal cation-treated incubation mixtures were posttreated with 50 equivalents of EDTA or EGTA for 15 min before fluorescence emission readout.
# [6] = Reversibility of metal complexation upon addition of EDTA or EGTA; conditions: 50 equivalents
# Experimental: FIG. 9: Reversibility of p-H8THPPA and m-H8TPPA metal complexation. • Fluorescence of metal cation pretreated p-H8THPPA or m-H8TPPA solutions upon addition of 50 equivalents of EDTA or EGTA (⋅⋅Exc/Em.416 nm/650 nm). Data are means±S.E.M. of n=3 independent experiments. Statistically significant differences from buffer incubation (***p<0.001; two-way ANOVA/ Tukey post hoc test) or from metal cation treatment (##p<0.01; ###p<0.001; two-way ANOVA/Tukey post hoc test) are indicated.
# as §2
# Caco-2 cells [7] = experiment: Fluorescence labeling of Caco-2 enterocytes (emission spectra, confocal imaging); type: cell-based, human; conditions: for passage of the cellular membrane / cellular uptake: Caco-2 cells, fluorescence spectra and confocal imaging
# Experimental: FIG. 2: Caco-2 fluorescence labeling with Phenylphosphonate-substituted porphyrines. • Caco-2 cells were incubated with increasing concentrations of p-H8TPPA or m-H8TPPA followed by fluorescence measurement (⋅Exc/Em.416 nm/650 nm). Data are means±S.E.M. of n=3 independent experiments.
# FIG. 5: Fluorescence labeling of Caco-2 enterocytes by phenylphosphonate-substituted porphyrines. • Fluorescence emission spectra of Caco-2 cells exposed to p-H8TPPA, m-H8TPPA (A) or the isopropyl-modified phosphonate p-H8TPPA-iPr8 (C) in comparison with each of the phenylphosphonate porphyrins as 10 μM dilution in assay buffer (⋅Exc416 nm). (B) Confocal images of Caco-2 upon loading with p-H8TPPA or m-H8TPPA. (D) Confocal images of p-H8TPPA-iPr8 in the presence or absence of Caco-2 cells. Scale bar=10 μm. Data are representative for three independent experiments.
# as §1
# Fluorescence images of phosphonate porphyrin-labeled Caco-2 enterocytes were acquired on a Leica TCS SP8 laser scanning confocal microscope equipped with LAS X 3.5.5.19976 software platform, using a HC PL APO CS2 63×/1.20 water objective. The filters settings were[…]Exc488 nm/[…]Em580 nm; pinhole 111.5 μm, pinhole size 1 AU.
# [8] = Solubility in aqueous media with detergent pluronic; type: physicochemical; conditions: pluronic F-127
# [9] = 10 μM probe, 40 μM metal, pH 7.4
Structure (SMILES),intracellular probe fluorescence upon extracellular FeSO4 (Caco-2 cells [1]),intracellular probe fluorescence upon Cu-exposure (Caco-2 cells [1]),"intracellular probe response to incoming Cd^2+, Cu^2+, Hg^2+, Mn^2+, Pb^2+ and Zn^2+ (Caco-2 cells [1])","fluorescence change upon Ca^2+ or Mg^2+ treatment [2, 9]","fluorescence change upon Mn^2+ and (far more pronounced) Pb^2+ treatment [2, 9]","red-shift of the Soret band after Hg^2+ treatment [2, 9]","new absorbance band peak after Cd^2+ treatment [2, 9]",Soret peak of visible absorption [2],"half maximal effective concentration for fluorescence silencing, copper versus other metal cations [3]",fluorescence upon treatment with Cu^2+ [3],"fluorescence change on binding of free divalent Cu, Zn, Pb, Hg, Cd, Co and Mn ions [4]","fluorescence change on binding of free divalent Fe, Mg and Ca ions [4]",fluorescence change by iron treatment in vitro [4],fluorescence response to Cu^2+ and Cu^+ [5],response of Zn^2+ and Hg^2+ quenching to metal chelator posttreatment [6],response of copper-induced fluorescence decrease to metal chelator posttreatment [6],passage of the cellular membrane / cellular uptake (Caco-2 cells [7]),other results
"O=P(O)(O)c1cccc(-c2c3nc(c(-c4cccc(P(=O)(O)O)c4)c4ccc([nH]4)c(-c4cccc(P(=O)(O)O)c4)c4nc(c(-c5cccc(P(=O)(O)O)c5)c5ccc2[nH]5)C=C4)C=C3)c1 [m-H8TPPA, 5,10,15,20-tetrakis [m-phenylphosphonic acid] porphyrin]",remained stable,strong and rapid decline,fluorescence silencing,higher fluorescence,dropped markedly,approximately 30 nm,434 nm,around 416 nm,considerably lower for copper,almost complete abrogation,fluorescent decrease,fluorescent increase,slightly enhanced,Quenching,quenching was reversed,almost non-responsive,pass the cellular membrane,
"O=P(O)(O)c1ccc(-c2c3nc(c(-c4ccc(P(=O)(O)O)cc4)c4ccc([nH]4)c(-c4ccc(P(=O)(O)O)cc4)c4nc(c(-c5ccc(P(=O)(O)O)cc5)c5ccc2[nH]5)C=C4)C=C3)cc1 [p-H8TPPA, 5,10,15,20-Tetrakis [p-phenylphosphonic acid] porphyrin]",remained stable,strong and rapid decline,fluorescence silencing,higher fluorescence,dropped markedly,approximately 30 nm,434 nm,around 416 nm,considerably lower for copper,almost complete abrogation,fluorescent decrease,fluorescent increase,slightly enhanced,Quenching,quenching was reversed,almost non-responsive,pass the cellular membrane,"fluorescence emission after Zn^2+ treatment relative to excitation properties ([2]; 10 μM probe, 40 μM metal, pH 7.4, FIG. 1): much lower than what would have been expected"
"CC(C)OP(=O)(OC(C)C)c1ccc(-c2c3nc(c(-c4ccc(P(=O)(OC(C)C)OC(C)C)cc4)c4ccc([nH]4)c(-c4ccc(P(=O)(OC(C)C)OC(C)C)cc4)c4nc(c(-c5ccc(P(=O)(OC(C)C)OC(C)C)cc5)c5ccc2[nH]5)C=C4)C=C3)cc1 [p-H8TPPA-iPr8, 5,10,15,20-tetrakis[p-(diisopropoxyphosphoryl)phenyl] porphyrin]",,,,,,,,,,,,,,,,,inaccessible for cellular uptake,"effect of detergent pluronic on solubility in aqueous media [8]: did not improve the solubility; fluorescence change upon metal binding ([4]; isopropyl diester, phosphonate blocked for metal binding): no fluorescence change; microcrystal size in confocal microscopy pictures (Caco-2 cells [7]; incubation buffer, with or without Caco-2 cells): ~20 μm"
